In US12673056B2, “Oral formulation comprising a crystalline form of rabeximod” (Cyxone AB, priority 2020, dated 2026):

Assays:
[1] = Particle size by laser diffractometry (Malvern Mastersizer) following micronisation; type: physicochemical; details: for Feed particles % <10 μm: before micronisation; for % <10 μm / D(0.1) / D(0.5) / D(0.9): result after micronisation
From the text: In a still further embodiment the composition comprises rabeximod in the form of a dry powder, e.g. a micronized powder. The particle size distribution can be determined by means of laser diffractometry. In a preferred embodiment, a Malvern Instru-ments Mastersizer is used to determine the particle size distribution. Using a Malvern Mastersizer apparatus, volume-based size distribution parameters will typically be re-ported, e.g. in the form of the D10, D50 and D90 values. The average particle size (D50-value), which is also denoted D50-value of the integral volume distribution, is defined in the context of this invention as the particle diameter at which 50 percent by volume of the particles have a smaller diameter than the diameter which corresponds to the D50-value. Likewise, 50 percent by volume of the particles have a larger diameter than the D50-value. Analogously, the D90-value of the integral volume distribution is defined as the particle diameter at which 90 percent by volume of the particles have a smaller diameter than the diameter which corresponds to the D90-value. Corre-spondingly, the D10-value of the integral volume distribution is defined as the particle diameter at which 10 percent by volume of the particles have a smaller diameter than the diameter which corresponds to the D10-value. Typically, in accordance with the present invention, the Rabeximod (micronized) dry powder has a particle size characterized by a D10 within the range of 0.5-1.0 μm, a D50 within the range of 1.5-3.5 μm, and/or a D90 within the range of 5.5-9.9 μm, when measured using laser light diffractometry.
The micronisation operation is performed using a standard jet-mill. The set point for the particle size was that not less than 90% of the particles should be smaller than 10 μm. In-process samples were drawn and analyzed using a Malvern Mastersizer during the process to verify that a sufficient size reduction had been achieved (Malvern Mastersizer 2000 instrument, equipped with a Scirocco 2000(A) dispersion unit and a Micro Tray, operated at 2.5 bar, a feed rate of 60%, a measuring time of 5 seconds and a background time of 5 second; compliant with Ph.Fur method 2.9.31).
Results of the micronisation step in particle size is provided in Table 1 for Rabeximod drug substance batches.

healthy male volunteers = experiment: Phase 1 clinical trial: safety, tolerability, pharmacokinetics of single and multiple oral rising doses; type: in vivo, human
From the text: The Phase 1 study assessed the safety, tolerability, pharmacokinetics and pharmacodynamics of single and multiple oral rising doses of Rabeximod (in a capsule formulation as described in the preceding sections) in healthy male volunteers. The study also included an open-label, randomised, two-period crossover part that was designed to investigate the effect of food on the pharmacokinetics of Rabeximod. In total, 87 healthy male subjects were enrolled into the study.

[2] = system: patients diagnosed with active RA; experiment: Phase II clinical trial in combination with stable dose of methotrexate; type: in vivo, human
Protocol: A total of 225 patients diagnosed with active RA based on the American Rheu-matism Association (ARA) revised criteria were randomized to receive one of the following treatments: • 6.25 mg of Rabeximod (daily) • 15 mg of Rabeximod (daily) • 37.5 mg of Rabeximod (daily) • Placebo
Study drug was provided in the form of a capsule comprising micronized rabeximod, as described in the preceding sections. Placebo was provided in the form of a capsule identical in appearance to the study drug formulation. In all treatment groups patients were required to continue taking a stable dose of methotrexate. Over 200 patients completed the study. During the study, safety, efficacy and pharmaco-kinetic/pharmacodynamic properties of the study drug formulation were assessed with appropriate tests.

Compound	Feed particles % <10 μm [1] [%]	% <10 μm [1] [%]	D(0.1) [1] [μm]	D(0.5) [1] [μm]	D(0.9) [1] [μm]	time plasma concentrations measurable post dose (healthy male volunteers; on average, following repeated once daily dosing (Day 14))	increase of systemic exposure (AUC0-t) with dose (healthy male volunteers; repeated once daily administration)	increase of systemic exposure (AUC0-t) with dose (healthy male volunteers; single administration at 12.5 mg to 600 mg)	tolerability, higher doses (healthy male volunteers; single dose of 600 mg, and multiple dose of 600 mg loading followed by 100 mg)	tolerability, single doses (healthy male volunteers; single oral doses up to 400 mg)	tolerability, multiple oral doses (healthy male volunteers; up to a 200 mg loading dose followed by 50 mg maintenance dose)	most optimal treatment based on the efficacy and safety results ([2]; 15 mg daily)	effects for key secondary endpoints of treatment ([2]; 6.25, 15 or 37.5 mg daily with methotrexate, p<0.05)	predicted increase of AUC0-t and Cmax for a doubling in dose ([2]; Power Model, dose range 6.25 to 37.5 mg, patients with moderate or severe RA, on average) [fold]	kinetics with respect to time (accumulation in plasma consistent with t1/2) ([2]; repeated oral administration)
Cc1cc2nc3c4cc(Cl)ccc4n(CC(=O)NCCN(C)C)c3nc2cc1C [146-32]	41.9	98.1	0.7	2.2	8.2	–	–	–	–	–	–	–	–	–	–
Cc1cc2nc3c4cc(Cl)ccc4n(CC(=O)NCCN(C)C)c3nc2cc1C [262-1]	29.0	94.5	0.7	2.2	8.4	–	–	–	–	–	–	–	–	–	–
Cc1cc2nc3c4cc(Cl)ccc4n(CC(=O)NCCN(C)C)c3nc2cc1C [262-2]	32.6	92.6	0.7	2.2	7.6	–	–	–	–	–	–	–	–	–	–
Cc1cc2nc3c4cc(Cl)ccc4n(CC(=O)NCCN(C)C)c3nc2cc1C [Rabeximod, 9-Chloro-2,3-dimethyl-6-(N,N-dimethylaminoethylamino-2-oxoethyl)-6H-indolo-[2,3b]quinoxaline]	–	–	–	–	–	up to 168 hours	trend was also noted	approximately dose-proportional	less well tolerated due to phototoxicity reactions	well tolerated	well tolerated	most optimal	therapeutically meaningful and statistically significant	2	linear with respect to time
Cc1cc2nc3c4cc(Cl)ccc4n(CC(=O)NCCN(C)C)c3nc2cc1C [compound 149]	30.9	99.1	0.6	2.0	5.9	–	–	–	–	–	–	–	–	–	–
Cc1cc2nc3c4cc(Cl)ccc4n(CC(=O)NCCN(C)C)c3nc2cc1C [compound 153]	32.7	99.1	0.6	1.9	5.7	–	–	–	–	–	–	–	–	–	–
